Experimental data from US6541502B1, “2-(aminomethyl)-tetrahydro-9-oxa-1,3-diaza-cyclopenta[a]-naphthalenyl derivatives with antipsychotic activity” (Wyeth, priority 2001, dated 2003).
Structures can show the parent of a compound that is named as a salt.

Legend:
[1] = biological target: T1, dopamine autoreceptor (Rattus norvegicus, UniProt P61169); assay: [3H]-quinpirole binding, dopamine autoreceptor affinity (D2 Quin.); conditions: homogenized rat striatal brain tissue
T1 construct: homogenized rat striatal brain tissue; from tissue; host or cells: rat striatal brain tissue homogenate
Method: Affinity for the dopamine autoreceptor was established by a modification of the standard experimental test procedure of Seemen and Schaus, European Journal of Pharmacology 203: 105-109, 1991, wherein homogenized rat striatal brain tissue is incubated with [^3H]-quinpirole (Quin.) at various concentrations of test compound, filtered, washed and counted in a Betaplate scintillation counter.

[2] = system: dopamine D2 receptor; assay: [3H]-spiperidone binding, dopamine D2 receptor (D2 Spiper); conditions: ratio of D2 Spiper IC50 to D2 Quin. IC50 (LowAg/HighAg)
Method: High affinity for the dopamine D2 receptor was established by the standard experimental test procedure of Fields, et al., Brain Res., 136, 5789 (1977) and Yamamura et al., ed., Neurotransmitter Receptor Binding, Chapter 9, page 171, Raven Press, N.Y. (1978) wherein homogenized limbic brain tissue is incubated with [^3H]-spiperidone at various concentrations of test compound, filtered washed, and shaken with Hydrofluor scintillation cocktail (National Diagnostics) and counted in a Packard 460 CD scintillation counter.

T1 sequence (P61169 whole entry): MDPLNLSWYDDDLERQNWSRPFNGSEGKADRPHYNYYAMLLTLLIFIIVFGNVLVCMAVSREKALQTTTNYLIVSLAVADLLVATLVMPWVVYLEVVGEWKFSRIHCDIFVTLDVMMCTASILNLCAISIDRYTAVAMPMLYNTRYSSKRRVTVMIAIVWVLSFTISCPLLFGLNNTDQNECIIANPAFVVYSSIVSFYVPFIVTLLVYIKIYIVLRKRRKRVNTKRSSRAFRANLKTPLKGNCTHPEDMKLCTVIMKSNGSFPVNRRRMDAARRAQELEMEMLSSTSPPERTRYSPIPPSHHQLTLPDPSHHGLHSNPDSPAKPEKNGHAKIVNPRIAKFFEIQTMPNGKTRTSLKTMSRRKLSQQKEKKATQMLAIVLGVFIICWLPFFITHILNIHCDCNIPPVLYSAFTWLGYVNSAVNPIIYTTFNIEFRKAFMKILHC

Row | melting point [°C] | IC50 [1] [nM] | Ratio [2] | Structure (SMILES)
1 | 244 | – | – | FC(F)(F)c1nc2ccc3c(c2[nH]1)OC(CNCc1ccccc1)CC3 (stereo not drawn) (as salt: oxalate) [Example 1, Benzyl-(2-trifluoromethyl-1,6,7,8-tetrahydro-9-oxa-1,3-diaza-cyclopenta[a]naphthalen-8-ylmethyl)-amine]
2 | – | 11.5 | 75 | FC(F)(F)c1nc2ccc3c(c2[nH]1)OC(CNCc1ccccc1)CC3 (stereo not drawn) [Example 1, Benzyl-(2-trifluoromethyl-1,6,7,8-tetrahydro-9-oxa-1,3-diaza-cyclopenta[a]naphthalen-8-ylmethyl)-amine]
